The values below come from article PMC7576608, “Mechanisms of telomerase inhibition by oxidized and therapeutic dNTPs” (Nature Communications, 2020).

Assay [1] deals with T1, telomerase (Homo sapiens, UniProt O14746). The assay can be described thus: Telomerase repeat processivity IC50: modified dNTP titrated into reactions with all four natural dNTPs. More on the design: made in house; anti-FLAG immunopurification, eluted with 3xFLAG peptide. As to conditions: for Slope (line fit of ln(100-%LB) vs # telomere repeats) / YIntercept (line fit of ln(100-%LB) vs # telomere repeats): replicates n1, n2; for ln(100-%LB): n1, n2. Type of assay: biochemical. An excerpt:
In order to better understand the ability of modified dNTPs to compete with natural dNTPs for telomerase utilization, we added modified dNTPs to reactions containing all four natural dNTPs. […] The calculated IC50 determines the concentration required to reduce repeat processivity in the bulk reactions by half. However, it is important to note that bulk experiments cannot distinguish effects on individual telomeres, since extended telomeres mask unextended telomeres. Incorporation of a chain terminator during any step will terminate extension of the affected telomere, and just five critically short telomeres are sufficient to trigger senescence. Therefore, repeat processivity IC50 values are not necessarily an indicator of the inhibitory potency, but provide information on selectivity for modified dNTPs compared to natural dNTPs. […] The ability to purify sufficient quantities of tcTERT enables characterization of the catalytic nucleotide addition by pre-steady-state single turnover kinetics using a defined DNA–RNA primer–template substrate. The catalytic efficiency of incorporating a single dNTP is measured by dividing the observed nucleotide incorporation rate constant, kpol, by the equilibrium dissociation constant for dNTP binding to the tcTERT–primer–template complex (Kd)[44].
The reactions were started by the addition of 3 μl of immunopurified telomerase eluent, incubated at 37 °C for 1 h, then terminated with 2 μl of […] and heat inactivated at 65 °C for 20 min. An equal volume of loading buffer (94% formamide, 0.1× TBE, 0.1% bromophenol blue, 0.1% xylene cyanol) was added to the reaction eluent. The samples were heat denatured for 10 min at 100 °C and loaded onto a 14% denaturing acrylamide gel (7 M urea, 1× TBE) and electrophoresed for 90 min at constant 38 W. Samples were imaged using a Typhoon phosphorimager (GE Healthcare). Percent primer extension was calculated with ImageQuant TL 8.2 by measuring the intensity of each product band and dividing by the total radioactivity in the lane or total products, as indicated in the figure legends.
The processivity was calculated as described[40],[67]. Repeat processivity from the direct telomerase extension assays was calculated as R1/2 (equivalent to the half-time for decay in an exponential time course), which represents the median length of DNA product formed, expressed in terms of number of telomere repeats. First, the total volume counts for each product band extend by one or more telomere repeats were obtained using Image Quant TL. The volume counts were then normalized by dividing by the number of radiolabeled guanosines incorporated into the extended products based on the number of repeats added, termed corrected volume (corr vol). The “percent left behind” (%LB) was calculated for each product band by summing the counts for that product band and for every product band below (shorter products), divided by the total counts for the lane, and then multiplied by 100. The natural log of (100−%LB) was calculated and then plotted vs. repeat number for each product length. A linear regression line was fit to the data to determine the slope of the line. The R1/2 value was calculated by dividing −ln(2) by the slope of each fitted line (R1/2 = −ln(2)/slope).
Supplementary Fig 8. IC50 values for telomerase processivity inhibition. Telomerase reactions were conducted with cellular relevant concentrations of all four natural dNTPs and increasing concentrations of the modified dNTP analog from 0 to 10,000 μM to calculate. (a) The natural log of (100-%LB) was plotted vs repeat number. A straight line was fit to the data and the R1/2 value was calculated by dividing –ln(2) by the slope of each line. Plots shown from one experiment are […]

Assay [2] deals with T1, telomerase. The assay can be described thus: Telomerase extension of 32P-end labeled primers with a single dNTP (percent primer extension). Type of assay: biochemical. As to conditions: for Percent Primer Extension: 50 μM single dNTP. More on the design: made in house; anti-FLAG immunopurification, eluted with 3xFLAG peptide. As for the experimental part: A chain terminating mechanism of inhibition requires that the enzyme adds the modified dNTP to a growing chain, which then blocks further synthesis. […] To test whether telomerase can incorporate other modified dNTPs, and whether the incorporation is chain terminating and/or mutagenic, we conducted direct extension assays in which we radiolabeled the primer and added increasing concentrations (5, 50, and 500 μM) of a single dNTP (Supplementary Figs. 3, 5, 6, and 7). Since modified dNTPs may prefer mispairing, we tested various primers in which the first template base was either rA3, rC1, or rU5 (primer 1, primer 2, and primer 3, respectively), and compared the percent primer extension for each dNTP at the middle 50 μM concentration (Fig. 3). Primers 1 and 2 initiate synthesis at consecutive rA3rA4 or rC1rC2 template bases, respectively, so we could examine both incorporation and extension to the next base. However, the telomerase template lacks tandem rU residues.
Fig. 3 Telomerase insertion of modified dNTPs. Telomerase reactions were conducted with 5 nM ^32P-end labeled primer a Primer 1 (TTAGGG)3, b Primer 2 (GGTTAG)3, or c Primer 3 (AGGGTT)3. Reactions contained cellular-concentration dNTPs (lane 1) or 50 μM of indicated natural dNTP (blue, lanes 2–5), oxidized dNTP (red, lanes 6–8), or therapeutic dNTP (green, lanes 9–11). Products were separated on denaturing gels. […] Letters on the right indicate the template base; P indicates unextended 18-mer primer. Graphs represent the percent of total primers extended. Images are representative of, and data are shown as mean ± s.d. from, three independent experiments. Source data are provided as a Source Data file.
An equal volume of loading buffer (94% formamide, 0.1× TBE, 0.1% bromophenol blue, 0.1% xylene cyanol) was added to the reaction eluent. The samples were heat denatured for 10 min at 100 °C and loaded onto a 14% denaturing acrylamide gel (7 M urea, 1× TBE) and electrophoresed for 90 min at constant 38 W. Samples were imaged using a Typhoon phosphorimager (GE Healthcare). Percent primer extension was calculated with ImageQuant TL 8.2 by measuring the intensity of each product band and dividing by the total radioactivity in the lane or total products, as indicated in the figure legends.
Telomerase reactions were conducted with 5 nM 32P-end labeled primer (a) Primer 1 (TTAGGG)3, (b) Primer 2 (GGTTAG)3, or (c and d) Primer 3 […]
(d) reactions contained 3 µg/µl RNase A. Products were separated on denaturing gels. Letters on the right indicate the template base; P indicates unextended 18-mer primer. Graphs represent the percent of total primers extended for the reactions in panels a – c from one experiment. Panel d is a representative image from three independent experiments. Source data are provided as a Source Data file. […]
Supplementary Fig 4. Time course reactions with telomerase or pol β. (a, b) Telomerase reactions were conducted with 5 nM 32P-end labeled primer (a) Primer 4 (GTTAGG)3 or (b) Primer 2 (GGTTAG)3.
Products were separated on denaturing gels. Letters on the right indicate the template base; P indicates […]
unextended 18-mer primer. […]

SMILES strings stand for the structures. Where “and” joins values, the source holds several entries; their conditions need not be identical. Identical values can stand only once.

T1 sequence (O14746 whole entry): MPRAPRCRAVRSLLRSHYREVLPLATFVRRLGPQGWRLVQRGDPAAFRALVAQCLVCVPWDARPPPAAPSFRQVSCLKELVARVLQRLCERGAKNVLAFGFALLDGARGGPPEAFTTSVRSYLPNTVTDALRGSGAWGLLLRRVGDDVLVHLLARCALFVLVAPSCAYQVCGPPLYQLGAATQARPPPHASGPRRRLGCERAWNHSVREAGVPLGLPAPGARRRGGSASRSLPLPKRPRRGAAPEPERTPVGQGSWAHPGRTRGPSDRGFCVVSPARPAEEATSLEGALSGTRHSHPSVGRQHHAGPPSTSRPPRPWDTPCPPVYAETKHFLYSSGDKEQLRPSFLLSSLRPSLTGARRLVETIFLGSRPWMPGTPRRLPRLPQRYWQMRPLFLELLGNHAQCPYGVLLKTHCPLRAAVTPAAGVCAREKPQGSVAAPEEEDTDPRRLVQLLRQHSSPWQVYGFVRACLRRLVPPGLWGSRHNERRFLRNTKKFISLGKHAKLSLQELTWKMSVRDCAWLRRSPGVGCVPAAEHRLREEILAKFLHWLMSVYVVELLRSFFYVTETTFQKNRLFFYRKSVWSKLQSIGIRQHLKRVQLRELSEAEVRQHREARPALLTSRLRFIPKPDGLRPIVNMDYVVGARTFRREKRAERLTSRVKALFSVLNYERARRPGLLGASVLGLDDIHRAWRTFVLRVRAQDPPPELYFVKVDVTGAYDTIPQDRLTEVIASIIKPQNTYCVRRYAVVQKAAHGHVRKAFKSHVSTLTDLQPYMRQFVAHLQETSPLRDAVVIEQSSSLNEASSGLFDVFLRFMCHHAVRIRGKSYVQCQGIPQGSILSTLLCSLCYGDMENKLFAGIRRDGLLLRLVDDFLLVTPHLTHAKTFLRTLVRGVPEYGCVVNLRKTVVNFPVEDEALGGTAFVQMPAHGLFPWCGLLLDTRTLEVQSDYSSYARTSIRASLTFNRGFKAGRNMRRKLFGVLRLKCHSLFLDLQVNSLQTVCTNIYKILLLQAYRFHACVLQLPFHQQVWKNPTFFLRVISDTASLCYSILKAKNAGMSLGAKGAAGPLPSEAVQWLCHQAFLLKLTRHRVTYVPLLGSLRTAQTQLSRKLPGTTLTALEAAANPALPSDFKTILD

`Cc1cn(C2CC(N=[N+]=[N-])C(COP(=O)(O)OP(=O)(O)OP(=O)(O)O)O2)c(=O)[nH]c1=O` (stereo not drawn) [AZ-TP]: the “Slope (line fit of ln(100-%LB) vs # telomere repeats)” value in assay [1] (8μM) was -0.35 and -0.41; in assay [1] (32μM) it was -0.51 and -0.43; in assay [1] (500μM), -1.08 and -0.93; in assay [1] (1000μM) it was -1.14 and -1.23; in assay [1] (2000μM), -1.39 and -1.63. The “YIntercept (line fit of ln(100-%LB) vs # telomere repeats)” value in assay [1] (8μM) was 3.32 and 3.48; in assay [1] (32μM), 3.76 and 3.36; in assay [1] (500μM), 4.06 and 3.77; in assay [1] (1000μM) it was 4.20 and 4.38; in assay [1] (2000μM), 4.11 and 4.80. Besides, the “ln(100-%LB)” value in assay [1] (8μM, telomere repeat 1) is 3.55 and 3.46; in assay [1] (8μM, telomere repeat 2), 2.86 and 2.72; in assay [1] (8μM, telomere repeat 3), 2.16 and 1.97; in assay [1] (8μM, telomere repeat 4), 1.81 and 1.63; in assay [1] (8μM, telomere repeat 5), 1.46 and 1.29; in assay [1] (8μM, telomere repeat 6), 1.02 and 0.87. In addition, the “ln(100-%LB)” value is 0.66 and 0.48 in assay [1] (8μM, telomere repeat 7); 0.32 and 0.21 in assay [1] (8μM, telomere repeat 8); 3.48 and 3.40 in assay [1] (32μM, telomere repeat 1); 2.72 and 2.60 in assay [1] (32μM, telomere repeat 2); 1.91 and 1.78 in assay [1] (32μM, telomere repeat 3); 1.53 and 1.42 in assay [1] (32μM, telomere repeat 4). For the same compound, the “ln(100-%LB)” value is 1.15 and 1.06 in assay [1] (32μM, telomere repeat 5); 0.66 in assay [1] (32μM, telomere repeat 6); 0.23 and 0.18 in assay [1] (32μM, telomere repeat 7); 3.07 and 3.05 in assay [1] (500μM, telomere repeat 1); 1.89 and 1.90 in assay [1] (500μM, telomere repeat 2); 0.66 and 0.65 in assay [1] (500μM, telomere repeat 3). In addition, the “ln(100-%LB)” value is 3.08 and 3.19 in assay [1] (1000μM, telomere repeat 1); 1.90 and 1.97 in assay [1] (1000μM, telomere repeat 2); 0.69 and 0.55 in assay [1] (1000μM, telomere repeat 3); 2.72 and 3.17 in assay [1] (2000μM, telomere repeat 1); 1.32 and 1.54 in assay [1] (2000μM, telomere repeat 2).

On to `Cc1cn([C@H]2C[C@H](N=[N+]=[N-])[C@@H](CO)O2)c(=O)[nH]c1=O` [AZT], for which the “% Primer Extension” value in assay [2] (Primer 1, 5µM dNTP) was 6.28%; in assay [2] (Primer 1, 50µM dNTP) it was 12.17%; in assay [2] (Primer 1, 500µM dNTP), 12.98%; in assay [2] (Primer 2, 5µM dNTP) it was 0%; in assay [2] (Primer 2, 50µM dNTP) it was 0%; in assay [2] (Primer 2, 500µM dNTP), 0%. For the same compound, the “% Primer Extension” value in assay [2] (Primer 3, 5µM dNTP) is reported as 0%; in assay [2] (Primer 3, 50µM dNTP), 3.43%; in assay [2] (Primer 3, 500µM dNTP) it was 4.38%.

On to `Nc1ccn([C@H]2C[C@H](O)[C@@H](COP(=O)(O)OP(=O)(O)OP(=O)(O)O)O2)c(=O)n1` [dCTP], for which the “Percent Primer Extension” value in assay [2] (Primer 1 (TTAGGG)3, first template base rA3, Mean of three experiments) is 5.85%; in assay [2] (Primer 1 (TTAGGG)3, first template base rA3, single experiments n1-n3, listed as dC) it was 5.75% and 3.98% and 7.81%; in assay [2] (Primer 2 (GGTTAG)3, first template base rC1, Mean of three experiments), 0.00%; in assay [2] (Primer 2 (GGTTAG)3, first template base rC1, single experiments n1-n3), 0.00%; in assay [2] (Primer 3 (AGGGTT)3, first template base rU5, Mean of three experiments), 0.00%; in assay [2] (Primer 3 (AGGGTT)3, first template base rU5, single experiments n1-n3) it was 0.00%. Also, the “% Primer Extension” value worked out at 4.15% in assay [2] (Primer 1, 5µM dNTP); 7.81% in assay [2] (Primer 1, 50µM dNTP); 8.06% in assay [2] (Primer 1, 500µM dNTP); 0.00% in assay [2] (Primer 2, 5µM dNTP); 0.00% in assay [2] (Primer 2, 50µM dNTP); 0.00% in assay [2] (Primer 2, 500µM dNTP). Also, the “% Primer Extension” value came out at 0.00% in assay [2] (Primer 3, 5µM dNTP); 0.00% in assay [2] (Primer 3, 50µM dNTP); 0.00% in assay [2] (Primer 3, 500µM dNTP).
